Where “and” joins values, the source holds several entries; their conditions need not be identical. Equal entries are not always repeated. Inconclusive results and toxic doses are left out.
Test system: BDF1 mice, P388 leukemia ip, median survival T/C
Test: NCI In Vivo Anticancer Drug Screen. Data for tumor model P388 Leukemia (intraperitoneal) in B6D2F1 (BDF1) mice
Settings: endpoint: median survival time, higher = longer survival
How it was run: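 Steps: implant the tumour, treat one group with compound and another with vehicle, record survival, then divide treated by control.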

[1] = dose: 50.0 mg/kg/injection, schedule: Q01DX009 (ip), vehicle: saline with Tween-80
[2] = dose: 100.0 mg/kg/injection, schedule: Q01DX009 (ip), vehicle: saline with Tween-80
[3] = dose: 200.0 mg/kg/injection, schedule: Q04DX003 (ip), vehicle: Klucel (hydroxypropylcellulose) (HPC)
[4] = dose: 100.0 mg/kg/injection, schedule: Q04DX003 (ip), vehicle: saline with Tween-80
[5] = dose: 200.0 mg/kg/injection, schedule: Q01DX009 (ip), vehicle: saline with Tween-80
[6] = dose: 200.0 mg/kg/injection, schedule: Q04DX003 (ip), vehicle: saline with Tween-80
[7] = dose: 25.0 mg/kg/injection, schedule: Q04DX003 (ip), vehicle: saline
[8] = dose: 50.0 mg/kg/injection, schedule: Q04DX003 (ip), vehicle: saline
[9] = dose: 100.0 mg/kg/injection, schedule: Q04DX003 (ip), vehicle: saline
[10] = dose: 100.0 mg/kg/injection, schedule: Q04DX003 (ip), vehicle: Klucel (hydroxypropylcellulose) (HPC)
[11] = dose: 400.0 mg/kg/injection, schedule: Q04DX003 (ip), vehicle: Klucel (hydroxypropylcellulose) (HPC)

COC1C(O)C(C)OC(OC2C(Oc3cccc4c(O)c5c(=O)oc6ccc(C)c7c(=O)oc(c34)c5c67)OC(C)C(O)C2O)C1O (stereo not drawn) was tested, and the T/C (dose: 0.39 mg/kg/injection, schedule: Q01DX009 (ip), vehicle: other) was 98 % of control and 121 % of control, the T/C (dose: 0.39 mg/kg/injection, schedule: Q01DX009 (oral), vehicle: Klucel (hydroxypropylcellulose) (HPC)) was 110 % of control and the T/C (dose: 0.78 mg/kg/injection, schedule: Q01DX009 (ip), vehicle: other) was 104 % of control. For the same molecule, the T/C (dose: 0.78 mg/kg/injection, schedule: Q01DX009 (oral), vehicle: Klucel (hydroxypropylcellulose) (HPC)) was 100 % of control, the T/C (dose: 1.56 mg/kg/injection, schedule: Q01DX009 (ip), vehicle: other) was 106 % of control and the T/C (dose: 1.56 mg/kg/injection, schedule: Q01DX009 (oral), vehicle: Klucel (hydroxypropylcellulose) (HPC)) was 98 % of control and 104 % of control. The T/C (dose: 3.12 mg/kg/injection, schedule: Q01DX009 (ip), vehicle: Klucel (hydroxypropylcellulose) (HPC)) was 159 % of control, the T/C (dose: 3.12 mg/kg/injection, schedule: Q01DX009 (ip), vehicle: other) was 159 % of control and the T/C (dose: 3.12 mg/kg/injection, schedule: Q01DX009 (oral), vehicle: Klucel (hydroxypropylcellulose) (HPC)) was 109 % of control and 110 % of control. For the same molecule, the T/C (dose: 3.13 mg/kg/injection, schedule: Q01DX009 (ip), vehicle: saline with Tween-80) was 162 % of control, the T/C (dose: 6.25 mg/kg/injection, schedule: Q01DX009 (ip), vehicle: Klucel (hydroxypropylcellulose) (HPC)) was 173 % of control and the T/C (dose: 6.25 mg/kg/injection, schedule: Q01DX009 (ip), vehicle: other) was 200 % of control. For the same molecule, the T/C (dose: 6.25 mg/kg/injection, schedule: Q01DX009 (ip), vehicle: saline with Tween-80) was 217 % of control, the T/C (dose: 6.25 mg/kg/injection, schedule: Q01DX009 (oral), vehicle: Klucel (hydroxypropylcellulose) (HPC)) was 101 % of control and 106 % of control and the T/C (dose: 8.0 mg/kg/injection, schedule: Q04DX003 (ip), vehicle: saline with Tween-80) was 150 % of control. The T/C (dose: 12.5 mg/kg/injection, schedule: Q01DX009 (ip), vehicle: Klucel (hydroxypropylcellulose) (HPC)) was 209 % of control, the T/C (dose: 12.5 mg/kg/injection, schedule: Q01DX009 (ip), vehicle: other) was 156 % of control and 165 % of control and 205 % of control and the T/C (dose: 12.5 mg/kg/injection, schedule: Q01DX009 (ip), vehicle: saline with Tween-80) was 190 % of control and 199 % of control. The T/C (dose: 12.5 mg/kg/injection, schedule: Q01DX009 (oral), vehicle: Klucel (hydroxypropylcellulose) (HPC)) was 103 % of control and 105 % of control, the T/C (dose: 16.0 mg/kg/injection, schedule: Q04DX003 (ip), vehicle: saline with Tween-80) was 173 % of control and the T/C (dose: 25.0 mg/kg/injection, schedule: Q01DX009 (ip), vehicle: Klucel (hydroxypropylcellulose) (HPC)) was 221 % of control. For the same molecule, the T/C (dose: 25.0 mg/kg/injection, schedule: Q01DX009 (ip), vehicle: other) was 167 % of control and 215 % of control, the T/C (dose: 25.0 mg/kg/injection, schedule: Q01DX009 (ip), vehicle: saline with Tween-80) was 236 % of control and 210 % of control and the T/C (dose: 25.0 mg/kg/injection, schedule: Q01DX009 (oral), vehicle: Klucel (hydroxypropylcellulose) (HPC)) was 100 % of control and 105 % of control. For the same molecule, the T/C (dose: 32.0 mg/kg/injection, schedule: Q04DX003 (ip), vehicle: saline with Tween-80) was 172 % of control, the T/C (dose: 43.2 mg/kg/injection, schedule: Q04DX003 (ip), vehicle: Klucel (hydroxypropylcellulose) (HPC)) was 170 % of control and the T/C (dose: 43.2 mg/kg/injection, schedule: Q04DX003 (ip), vehicle: acid diluted with saline) was 153 % of control. The T/C (dose: 50.0 mg/kg/injection, schedule: Q01DX009 (ip), vehicle: Klucel (hydroxypropylcellulose) (HPC)) was 221 % of control, the T/C (dose: 50.0 mg/kg/injection, schedule: Q01DX009 (ip), vehicle: other) was 231 % of control and 193 % of control and the T/C [1] was 190 % of control. For the same molecule, the T/C (dose: 50.0 mg/kg/injection, schedule: Q01DX009 (oral), vehicle: Klucel (hydroxypropylcellulose) (HPC)) was 103 % of control and 111 % of control, the T/C (dose: 64.0 mg/kg/injection, schedule: Q04DX003 (ip), vehicle: saline with Tween-80) was 175 % of control and the T/C (dose: 72.0 mg/kg/injection, schedule: Q04DX003 (ip), vehicle: Klucel (hydroxypropylcellulose) (HPC)) was 173 % of control. The T/C (dose: 72.0 mg/kg/injection, schedule: Q04DX003 (ip), vehicle: acid diluted with saline) was 173 % of control, the T/C (dose: 100.0 mg/kg/injection, schedule: Q01DX009 (ip), vehicle: Klucel (hydroxypropylcellulose) (HPC)) was 170 % of control and the T/C [2] was 190 % of control and 220 % of control. For the same molecule, the T/C (dose: 100.0 mg/kg/injection, schedule: Q01DX009 (oral), vehicle: Klucel (hydroxypropylcellulose) (HPC)) was 104 % of control, the T/C (dose: 120.0 mg/kg/injection, schedule: Q04DX003 (ip), vehicle: Klucel (hydroxypropylcellulose) (HPC)) was 184 % of control and the T/C (dose: 120.0 mg/kg/injection, schedule: Q04DX003 (ip), vehicle: acid diluted with saline) was 180 % of control. For the same molecule, the T/C (dose: 128.0 mg/kg/injection, schedule: Q04DX003 (ip), vehicle: saline with Tween-80) was 182 % of control, the T/C (dose: 200.0 mg/kg/injection, schedule: Q01DX009 (oral), vehicle: Klucel (hydroxypropylcellulose) (HPC)) was 105 % of control and the T/C [3] was 175 % of control. The T/C (dose: 200.0 mg/kg/injection, schedule: Q04DX003 (ip), vehicle: acid diluted with saline) was 173 % of control.

With O=[N+]([O-])c1ccc(S(=O)(=O)c2ccc([N+](=O)[O-])c3no[n+]([O-])c23)cc1 the T/C (dose: 15.0 mg/kg/injection, schedule: Q01DX009 (ip), vehicle: saline with Tween-80) was 100 % of control and the T/C (dose: 30.0 mg/kg/injection, schedule: Q01DX009 (ip), vehicle: saline with Tween-80) was 90 % of control.

With C(=NCCN=Cc1c[nH]c2ccccc12)c1c[nH]c2ccccc12 the T/C (dose: 50.0 mg/kg/injection, schedule: Q04DX003 (ip), vehicle: saline with Tween-80) was 111 % of control, the T/C [2] was 88 % of control and the T/C [4] was 103 % of control. The T/C [5] was 92 % of control, the T/C [6] was 100 % of control and the T/C (dose: 400.0 mg/kg/injection, schedule: Q01DX009 (ip), vehicle: saline with Tween-80) was 103 % of control.

With NNC(=O)NO the T/C [7] was 95 % of control, the T/C [8] was 104 % of control and the T/C [9] was 100 % of control.

With OC1C2CC3C1C3C2O (stereo not drawn) the T/C [4] was 86 % of control, the T/C [6] was 100 % of control and the T/C (dose: 400.0 mg/kg/injection, schedule: Q04DX003 (ip), vehicle: saline with Tween-80) was 104 % of control.

With O=C1c2ccccc2-c2cc(-c3ccccc3)cc(-c3ccccc3)c21 the T/C [10] was 100 % of control, the T/C [3] was 100 % of control and the T/C [11] was 100 % of control.

For Cc1cc(OCc2nc(N)nc(N)c2-c2ccc(Cl)c(Cl)c2)ccc1NS(=O)(=O)c1cccc(S(=O)(=O)F)c1, the T/C (dose: 45.0 mg/kg/injection, schedule: Q04DX003 (ip), vehicle: Klucel (hydroxypropylcellulose) (HPC)) was 109 % of control, the T/C (dose: 65.0 mg/kg/injection, schedule: Q04DX003 (ip), vehicle: Klucel (hydroxypropylcellulose) (HPC)) was 118 % of control and the T/C [10] was 122 % of control. For the same molecule, the T/C (dose: 264.0 mg/kg/injection, schedule: Q04DX003 (ip), vehicle: Klucel (hydroxypropylcellulose) (HPC)) was 175 % of control and the T/C [11] was 170 % of control.

For COC1CCC(C=O)C(C#N)(C#N)C1(C#N)C#N (stereo not drawn), the T/C (dose: 50.0 mg/kg/injection, schedule: Q01DX001 (ip), vehicle: saline with Tween-80) was 112 % of control and the T/C (dose: 100.0 mg/kg/injection, schedule: Q01DX001 (ip), vehicle: saline with Tween-80) was 100 % of control.

In the case of CCCCCCCCCCCCCCSC1CC(=O)OC1=O (stereo not drawn), the T/C [1] is reported as 98 % of control, the T/C [2] is reported as 91 % of control and the T/C [5] is reported as 96 % of control.

For N#CC(Br)(Br)C(N)=O, the T/C (dose: 2.5 mg/kg/injection, schedule: Q01DX009 (ip), vehicle: saline) was 115 % of control and the T/C (dose: 5.0 mg/kg/injection, schedule: Q01DX009 (ip), vehicle: saline) was 102 % of control.

For CC1(Cl)C(=O)NC(=O)C1Cl (stereo not drawn), the T/C (dose: 3.12 mg/kg/injection, schedule: Q04DX003 (ip), vehicle: saline) was 92 % of control, the T/C (dose: 6.25 mg/kg/injection, schedule: Q04DX003 (ip), vehicle: saline) was 95 % of control and the T/C (dose: 12.5 mg/kg/injection, schedule: Q04DX003 (ip), vehicle: saline) was 100 % of control. The T/C [7] was 104 % of control, the T/C [8] was 104 % of control and the T/C [9] was 113 % of control.

Reference: PubChem BioAssay AID328 (DTP/NCI, 2004)
